Reference: ChEMBL document CHEMBL3525917, “Species difference in the mechanism of nonlinear pharmacokinetics of E2074, a novel sodium channel inhibitor, in rats, dogs, and monkeys” (Drug Metab Dispos, 2013)

Columns and labels:
[1] = target: MDR1A (P-glycoprotein, ABCB1) (Mus musculus, UniProt P21447); experiment: Activity of mouse MDR1A expressed in pig LLC-PK1 cells assessed as efflux ratio of permeability from basolateral to apical side to apical to basolateral side at 1 uM after 2 hrs; assay type: ADME, cell-based
[2] = Tmax in wild-type mouse at 3 mg/kg, po; assay type: ADME, organism-based; design: dose 3 mg/kg, route oral; conditions: in vivo
[3] = Tmax in MDR1A/1B knock-out mouse at 3 mg/kg, po; assay type: ADME, organism-based; design: dose 3 mg/kg, route oral; conditions: in vivo
[4] = Cmax in wild-type mouse at 3 mg/kg, po; assay type: ADME, organism-based; design: dose 3 mg/kg, route oral; conditions: in vivo
[5] = Cmax in MDR1A/1B knock-out mouse at 3 mg/kg, po; assay type: ADME, organism-based; design: dose 3 mg/kg, route oral; conditions: in vivo
[6] = AUC in wild-type mouse at 3 mg/kg, po; assay type: ADME, organism-based; design: dose 3 mg/kg, route oral; conditions: plasma
[7] = AUC in MDR1A/1B knock-out mouse at 3 mg/kg, po; assay type: ADME, organism-based; design: dose 3 mg/kg, route oral; conditions: plasma
[8] = Ratio of drug level in brain to plasma in wild-type mouse at 3 mg/kg, po; assay type: ADME, organism-based; design: dose 3 mg/kg, route oral; conditions: brain and plasma
[9] = Ratio of drug level in brain to plasma in MDR1A/1B knock-out mouse at 3 mg/kg, po; assay type: ADME, organism-based; design: dose 3 mg/kg, route oral; conditions: brain and plasma
[10] = Solubility of the compound in phosphate buffered saline at pH 7 to 7.2; assay type: physicochemical
[11] = Tmax in Sprague-Dawley rat at 3 mg/kg, po; assay type: ADME, organism-based; design: dose 3 mg/kg, route oral; conditions: in vivo
[12] = Cmax in Sprague-Dawley rat at 3 mg/kg, po; assay type: ADME, organism-based; design: dose 3 mg/kg, route oral; conditions: in vivo
[13] = Half life in Sprague-Dawley rat at 3 mg/kg, po; assay type: ADME, organism-based; design: dose 3 mg/kg, route oral; conditions: in vivo
[14] = AUC in Sprague-Dawley rat at 3 mg/kg, po; assay type: ADME, organism-based; design: dose 3 mg/kg, route oral; conditions: plasma
[15] = Oral bioavailability in Sprague-Dawley rat at 3 mg/kg; assay type: ADME, organism-based; conditions: in vivo
[16] = Tmax in Sprague-Dawley rat at 10 mg/kg, po; assay type: ADME, organism-based; design: dose 10 mg/kg, route oral; conditions: in vivo
[17] = Cmax in Sprague-Dawley rat at 10 mg/kg, po; assay type: ADME, organism-based; design: dose 10 mg/kg, route oral; conditions: in vivo
[18] = Half life in Sprague-Dawley rat at 10 mg/kg, po; assay type: ADME, organism-based; design: dose 10 mg/kg, route oral; conditions: in vivo
[19] = AUC in Sprague-Dawley rat at 10 mg/kg, po; assay type: ADME, organism-based; design: dose 10 mg/kg, route oral; conditions: plasma
[20] = Oral bioavailability in Sprague-Dawley rat at 10 mg/kg; assay type: ADME, organism-based; conditions: in vivo
[21] = Tmax in Sprague-Dawley rat at 30 mg/kg, po; assay type: ADME, organism-based; design: dose 30 mg/kg, route oral; conditions: in vivo
[22] = Cmax in Sprague-Dawley rat at 30 mg/kg, po; assay type: ADME, organism-based; design: dose 30 mg/kg, route oral; conditions: in vivo
[23] = Half life in Sprague-Dawley rat at 30 mg/kg, po; assay type: ADME, organism-based; design: dose 30 mg/kg, route oral; conditions: in vivo
[24] = AUC in Sprague-Dawley rat at 30 mg/kg, po; assay type: ADME, organism-based; design: dose 30 mg/kg, route oral; conditions: plasma
[25] = Oral bioavailability in Sprague-Dawley rat at 30 mg/kg; assay type: ADME, organism-based; conditions: in vivo
[26] = Half life in beagle dog at 1 mg/kg, iv; assay type: ADME, organism-based, Canis lupus familiaris; design: dose 1 mg/kg, route intravenous; conditions: in vivo
[27] = AUC in beagle dog at 1 mg/kg, iv; assay type: ADME, organism-based, Canis lupus familiaris; design: dose 1 mg/kg, route intravenous; conditions: plasma
[28] = Clearance in beagle dog at 1 mg/kg, iv; assay type: ADME, organism-based, Canis lupus familiaris; design: dose 1 mg/kg, route intravenous; conditions: in vivo
[29] = Volume of distribution at steady state in beagle dog at 1 mg/kg, iv; assay type: ADME, organism-based, Canis lupus familiaris; design: dose 1 mg/kg, route intravenous; conditions: in vivo, read-out: Vdss
[30] = Tmax in beagle dog at 3 mg/kg, po; assay type: ADME, organism-based, Canis lupus familiaris; design: dose 3 mg/kg, route oral; conditions: in vivo
[31] = Cmax in beagle dog at 3 mg/kg, po; assay type: ADME, organism-based, Canis lupus familiaris; design: dose 3 mg/kg, route oral; conditions: in vivo
[32] = Half life in beagle dog at 3 mg/kg, po; assay type: ADME, organism-based, Canis lupus familiaris; design: dose 3 mg/kg, route oral; conditions: in vivo
[33] = AUC in beagle dog at 3 mg/kg, po; assay type: ADME, organism-based, Canis lupus familiaris; design: dose 3 mg/kg, route oral; conditions: plasma
[34] = Oral bioavailability in beagle dog at 3 mg/kg; assay type: ADME, organism-based, Canis lupus familiaris; conditions: in vivo
[35] = Tmax in beagle dog at 10 mg/kg, po; assay type: ADME, organism-based, Canis lupus familiaris; design: dose 10 mg/kg, route oral; conditions: in vivo
[36] = Cmax in beagle dog at 10 mg/kg, po; assay type: ADME, organism-based, Canis lupus familiaris; design: dose 10 mg/kg, route oral; conditions: in vivo
[37] = Half life in beagle dog at 10 mg/kg, po; assay type: ADME, organism-based, Canis lupus familiaris; design: dose 10 mg/kg, route oral; conditions: in vivo
[38] = AUC in beagle dog at 10 mg/kg, po; assay type: ADME, organism-based, Canis lupus familiaris; design: dose 10 mg/kg, route oral; conditions: plasma
[39] = Oral bioavailability in beagle dog at 10 mg/kg; assay type: ADME, organism-based, Canis lupus familiaris; conditions: in vivo
[40] = Half life in cynomolgus monkey at 1 mg/kg, iv; assay type: ADME, organism-based, Macaca fascicularis; design: dose 1 mg/kg, route intravenous; conditions: in vivo
[41] = AUC in cynomolgus monkey at 1 mg/kg, iv; assay type: ADME, organism-based, Macaca fascicularis; design: dose 1 mg/kg, route intravenous; conditions: plasma
[42] = Clearance in cynomolgus monkey at 1 mg/kg, iv; assay type: ADME, organism-based, Macaca fascicularis; design: dose 1 mg/kg, route intravenous; conditions: in vivo
[43] = Volume of distribution at steady state in cynomolgus monkey at 1 mg/kg, iv; assay type: ADME, organism-based, Macaca fascicularis; design: dose 1 mg/kg, route intravenous; conditions: in vivo, read-out: Vdss
[44] = Cmax in cynomolgus monkey at 3 mg/kg, po; assay type: ADME, organism-based, Macaca fascicularis; design: dose 3 mg/kg, route oral; conditions: in vivo
[45] = Half life in cynomolgus monkey at 3 mg/kg, po; assay type: ADME, organism-based, Macaca fascicularis; design: dose 3 mg/kg, route oral; conditions: in vivo
[46] = AUC in cynomolgus monkey at 3 mg/kg, po; assay type: ADME, organism-based, Macaca fascicularis; design: dose 3 mg/kg, route oral; conditions: plasma
[47] = Oral bioavailability in cynomolgus monkey at 3 mg/kg; assay type: ADME, organism-based, Macaca fascicularis; conditions: in vivo
[48] = Tmax in cynomolgus monkey at 10 mg/kg, po; assay type: ADME, organism-based, Macaca fascicularis; design: dose 10 mg/kg, route oral; conditions: in vivo
[49] = Cmax in cynomolgus monkey at 10 mg/kg, po; assay type: ADME, organism-based, Macaca fascicularis; design: dose 10 mg/kg, route oral; conditions: in vivo
[50] = Half life in cynomolgus monkey at 10 mg/kg, po; assay type: ADME, organism-based, Macaca fascicularis; design: dose 10 mg/kg, route oral; conditions: in vivo
[51] = AUC in cynomolgus monkey at 10 mg/kg, po; assay type: ADME, organism-based, Macaca fascicularis; design: dose 10 mg/kg, route oral; conditions: plasma
[52] = Oral bioavailability in cynomolgus monkey at 10 mg/kg; assay type: ADME, organism-based, Macaca fascicularis; conditions: in vivo
[53] = (§1) Drug metabolism in Sprague-Dawley rat liver microsomes after 7 mins by Michaelis-Menten plot analysis; assay type: ADME; conditions: Sprague-Dawley, liver microsomes
Liver microsome = experiment: as §1; assay type: ADME; conditions: microsomes, 7 min

MDR1A (P-glycoprotein, ABCB1), sequence (P21447 whole entry): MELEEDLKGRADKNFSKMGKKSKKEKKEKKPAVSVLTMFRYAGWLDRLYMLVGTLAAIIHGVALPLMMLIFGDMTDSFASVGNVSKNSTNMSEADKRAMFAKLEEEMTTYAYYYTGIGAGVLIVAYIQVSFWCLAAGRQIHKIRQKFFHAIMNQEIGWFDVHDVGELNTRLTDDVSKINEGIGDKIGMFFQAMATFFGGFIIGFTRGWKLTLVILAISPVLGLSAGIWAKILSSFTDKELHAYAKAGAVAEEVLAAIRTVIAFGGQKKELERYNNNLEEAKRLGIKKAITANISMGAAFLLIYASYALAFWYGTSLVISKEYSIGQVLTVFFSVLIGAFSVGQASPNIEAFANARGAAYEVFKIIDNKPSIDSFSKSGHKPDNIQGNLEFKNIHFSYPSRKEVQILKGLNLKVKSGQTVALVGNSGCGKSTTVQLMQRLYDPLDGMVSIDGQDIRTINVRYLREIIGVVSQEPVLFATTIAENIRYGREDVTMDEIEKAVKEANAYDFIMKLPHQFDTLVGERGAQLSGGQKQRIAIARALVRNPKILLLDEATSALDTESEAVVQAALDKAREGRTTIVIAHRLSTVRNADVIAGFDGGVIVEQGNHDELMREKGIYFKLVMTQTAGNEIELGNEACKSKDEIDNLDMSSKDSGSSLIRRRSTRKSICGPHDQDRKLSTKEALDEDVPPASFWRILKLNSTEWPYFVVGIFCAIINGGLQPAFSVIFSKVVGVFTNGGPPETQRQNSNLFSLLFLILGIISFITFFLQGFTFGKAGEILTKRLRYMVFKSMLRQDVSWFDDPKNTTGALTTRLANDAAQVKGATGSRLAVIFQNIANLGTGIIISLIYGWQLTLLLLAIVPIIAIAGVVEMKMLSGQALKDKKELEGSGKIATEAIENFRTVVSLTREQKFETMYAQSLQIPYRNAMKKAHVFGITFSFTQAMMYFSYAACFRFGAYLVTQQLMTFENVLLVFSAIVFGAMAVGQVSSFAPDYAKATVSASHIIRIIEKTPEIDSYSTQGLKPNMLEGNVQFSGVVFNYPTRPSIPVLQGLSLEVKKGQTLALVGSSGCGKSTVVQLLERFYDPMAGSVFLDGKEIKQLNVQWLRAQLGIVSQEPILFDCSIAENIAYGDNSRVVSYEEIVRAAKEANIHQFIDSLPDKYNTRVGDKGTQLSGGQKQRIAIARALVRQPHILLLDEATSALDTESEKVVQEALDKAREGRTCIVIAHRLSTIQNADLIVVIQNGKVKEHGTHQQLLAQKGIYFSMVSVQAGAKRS

Cc1nn(C[C@H](F)CN2C3CCC2CC(OCc2cccc(F)c2)C3)c(=O)n1C (some centres undefined)
efflux ratio at 2 h, 1 µM [1]: 3.14
Tmax [2]: 30 min
Tmax [3]: 15 min
Cmax [4]: 110 ng/mL
Cmax [5]: 100 ng/mL
AUC [6]: 230 ng·h/mL
AUC [7]: 240 ng·h/mL
Kp [8]: 2.4
Kp [9]: 8.3
solubility [10]: > 2000 µg/mL
Tmax [11]: 15 min
Cmax [12]: 20 ng/mL
half-life [13]: 30 min
AUC [14]: 20 ng·h/mL
bioavailability [15]: 2.6%
Tmax [16]: 15 min
Cmax [17]: 200 ng/mL
half-life [18]: 34.2 min
AUC [19]: 170 ng·h/mL
bioavailability [20]: 5.3%
Tmax [21]: 15 min
Cmax [22]: 1360 ng/mL
half-life [23]: 81.6 min
AUC [24]: 1420 ng·h/mL
bioavailability [25]: 15.1%
half-life [26]: 62.4 min
AUC [27]: 620 ng·h/mL
clearance [28]: 28.3 mL/min/kg
Vd [29]: 1.84 L/kg
Tmax [30]: 30 min
Cmax [31]: 20 ng/mL
half-life [32]: 54.6 min
AUC [33]: 20 ng·h/mL
bioavailability [34]: 1.2%
Tmax [35]: 30 min
Cmax [36]: 1070 ng/mL
half-life [37]: 109 min
AUC [38]: 2730 ng·h/mL
bioavailability [39]: 43.7%
half-life [40]: 116 min
AUC [41]: 700 ng·h/mL
clearance [42]: 22.5 mL/min/kg
Vd [43]: 3.07 L/kg
Cmax [44]: 40 ng/mL
half-life [45]: 95.4 min
AUC [46]: 180 ng·h/mL
bioavailability [47]: 7.8%
Tmax [48]: 1 h
Cmax [49]: 470 ng/mL
half-life [50]: 177 min
AUC [51]: 1580 ng·h/mL
bioavailability [52]: 20.9%
Km at 7 min [53]: 7.23 µM
Vmax (Liver microsome): 1.42 nmol/min/mg
